Molecules are shown by their SMILES.

The assay deals with mESC Bmi1-luciferase reporter, firefly/renilla ratio, 24 h. Briefly: Bmi1-luciferase reporter activators in mESC, dose response, esBAF inhibitor project, mouse embryonic stem cells, cherry-pick (AID 651717;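 also: luciferase knocked into Bmi1 locus with EF-1a renilla as cell number control; rising ratio signals esBAF inhibition which derepresses Bmi1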). (In general: In a reporter assay the amount or activity of a reporter protein is the signal.)
Turning to `COc1ccc(-c2ccc3n2Cc2cnnn2-c2ccccc2-3)cc1`, the AC40 is 4.57 µM.

With `CCCS(=O)(=O)N1CCC(C(=O)NC2CCC(C)CC2)CC1` (centres undefined), the AC40 was 3.19 µM.

Take `COc1ccc(/C=C/C(=O)Oc2cccc(/C=N/NC(=O)Cc3ccc(Br)cc3)c2)cc1`: the AC40 is 4.57 µM.

Regarding `Cc1cc(N2CCOCC2)nc2ccc(NC(=O)CCC(=O)N3CCN(c4ccccc4F)CC3)cc12`, the AC40 was 4.59 µM.

For the molecule `CS(=O)(=O)N1CCc2cc(C(=O)Nc3ccc(Cl)cc3)ccc21`, the AC40 was 6.5 µM.

For the molecule `COc1cc(CNc2ccc(N3CCN(C(C)=O)CC3)cc2)ccc1OCc1ccc(F)cc1`, the AC40 was 3.93 µM.

As to `COc1ccc(C(=O)N2CCc3ccccc32)cc1`, the AC40 is 5.97 µM.

With `N#Cc1ccc(-c2cn3c(n2)SCC3)cc1`, the AC40 is 4.82 µM.

For the molecule `COC(=O)c1c(-c2ccc(Br)cc2)noc1N`, the AC40 was 14.7 µM.

For the molecule `Cc1ccc(OCc2cc(C(=O)NC(C)Cc3cccnc3)no2)cc1C` (centres undefined), the AC40 is 1.8 µM.

For the molecule `CSc1ccc(CNc2ccc(C)c(C)c2)cc1`, the AC40 was 2.83 µM.

On to `CCc1nnc(NC(=O)c2ccc3c(=O)n4c(nc3c2)CCC4)s1`, for which the AC40 was 2.51 µM.

Consider `Cc1ccc(-c2noc(-c3ccccc3C(=O)N3CCN(C)CC3)n2)cc1`, for which the AC40 is 11.5 µM.

In the case of `COC(=O)C(Cc1ccc(OC(=O)c2ccc(Cl)cc2)cc1)N1Cc2ccccc2C1=O` (centres undefined), the AC40 is 3.13 µM.

As for `O=C(NCc1ccccn1)Nc1ccc(Br)cc1Cl`, the AC40 was 2.68 µM.

As for `CN(CC(=O)Nc1cccc(F)c1)C(=O)c1sc2ccccc2c1Cl`, the AC40 was 23.3 µM.

Take `O=c1/c(=C\c2cccnc2)sc2nc3ccccc3n12`: the AC40 is 9.85 µM.

As for `Cc1ccn2cc(C(=O)Nc3nnc(C)s3)nc2c1`, the AC40 is 1.17 µM.

For the molecule `CCn1c(COc2ccccc2)nc2ccccc21`, the AC40 is 22 µM.

In the case of `O=C(CC(NC(=O)OCc1ccccc1)c1nn[nH]n1)OCc1ccccc1` (centres undefined), the AC40 is 2.6 µM.

As for `Nc1nc(-c2cccc(F)c2)cs1`, the AC40 is 6.13 µM.

Regarding `CCCN1C(=O)c2ccc(C(=O)Nc3ccc4c(c3)OCO4)cc2C1=O`, the AC40 is 9.64 µM.

As for `O=C(Nc1nc2c(s1)CCc1ccccc1-2)c1cccs1`, the AC40 was 0.9 µM.

As to `CS(=O)(=O)c1cccc(-c2csc(N3CCC(C(N)=O)CC3)n2)c1`, the AC40 is under 0.26 µM.

On to `COc1ccc(C)cc1NCc1cc(=O)oc2cc(-c3ccccc3)c(O)cc12`, for which the AC40 is 32.4 µM.

As for `CC1CCC(NC(=O)c2cc3ccccc3cc2O)CC1` (centres undefined), the AC40 is 0.967 µM.

For the molecule `COc1cc(N=Nc2ccc(C(=O)N(C)C)cc2)c(C)cc1N`, the AC40 is 8.86 µM.

`CC(=O)Nc1ccc2c(c1Br)Cc1ccccc1-2`: the AC40 is 2.53 µM.

`COCOc1ccc(-c2cc(=O)c3c(O)cc(OCOC)cc3o2)cc1`: the AC40 is 8.4 µM.

For `Cc1cccc(OCc2nc3ccccc3c(=O)n2N)c1`, the AC40 was 7.24 µM.

As for `COc1cccc(Nc2cc(C)c3ccccc3n2)c1`, the AC40 was 6.06 µM.

As for `CCOC(=O)N1CCN(C(=O)CSCC(=O)Nc2nc(-c3ccc4c(c3)OCO4)cs2)CC1`, the AC40 is 12.1 µM.

Turning to `COc1cccc(OCc2cc(C(=O)N(C)Cc3nc4ccccc4[nH]3)no2)c1`, the AC40 was 2.78 µM.

As to `c1ccc(-c2nnc3oc(-c4cccs4)nn23)cc1`, the AC40 was 5.88 µM.

With `Cc1cccc(-c2noc(Cc3ccc(Cl)cc3)n2)c1`, the AC40 is 5.96 µM.

For `c1ccc(Oc2cc(-c3ccccc3)ncn2)cc1`, the AC40 was 2.16 µM.

As for `Cn1ccc2c(-c3ccc(C(=O)O)cc3)cc3c(c21)C1CCC3C1` (centres undefined), the AC40 is 4.09 µM.

Take `COc1ccc2c(CN(C)Cc3ccccc3)cc(=O)oc2c1`: the AC40 was 0.841 µM.

Take `COc1ccc(C(=O)Nc2cc3c4c(c2)CC(=O)N4CCC3)c(OC)c1`: the AC40 was 5.13 µM.

Regarding `Cc1ccc2oc3ccccc3c(=O)c2c1`, the AC40 was 7.05 µM.

Consider `c1ccc(Nc2nc3ccccc3n3nnnc23)cc1`, for which the AC40 is 7.2 µM.

As to `O=C(c1csc(Nc2ccccc2Cl)n1)N1CCCC1`, the AC40 was 1.07 µM.

For the molecule `COc1ccc(Cl)c(-c2cc(C(=O)Nc3ccc(F)cc3)[nH]n2)c1`, the AC40 was 2.11 µM.

As for `Cc1ccc(C(=O)NCC(=O)Nc2ccc3c(c2)CCC3)cc1`, the AC40 is 1.44 µM.

On to `COc1cccc(NC(=O)c2ccnc(N3CCC(C(=O)NCc4ccccc4OC)CC3)c2)c1`, for which the AC40 was 8.36 µM.

For `CO[C@H]1CN(C)C(=O)c2cc(NC(=O)NC(C)C)ccc2OC[C@H](C)N(Cc2ccc(-c3ccccn3)cc2)C[C@@H]1C`, the AC40 is 0.871 µM.

With `c1ccc(Cn2cnc3ccccc32)cc1`, the AC40 was 0.984 µM.

Consider `Cc1ccnc(NC(=O)CCCc2ccccc2)c1`, for which the AC40 is 5.74 µM.

In the case of `O=C(O)c1ccc(O)c2ncccc12`, the AC40 was 1.67 µM.

For the molecule `COc1ccccc1/C=C/C=N/n1c(-c2ccccn2)n[nH]c1=S`, the AC40 is 9.01 µM.

For the molecule `Cc1cccc(N/N=C/c2ccc(C)s2)c1`, the AC40 is 2.91 µM.

On to `NNC(=O)c1nc2ccccc2s1`, for which the AC40 is 4.4 µM.

In the case of `Cn1c(/C(C#N)=C(\O)c2ccc(Cl)s2)nc2ccccc21`, the AC40 was 3.09 µM.

For `COc1ccc(CCn2nnc3ccccc3c2=O)cc1OC`, the AC40 is 4.92 µM.

For the molecule `CC1CCCN(C(=O)c2cc3c(=O)n4ccccc4nc3s2)C1` (centres undefined), the AC40 was 14.1 µM.

With `C/C(=N\O)c1ccc2c3ccccc3n(C)c2c1`, the AC40 is 3.32 µM.

As to `CN(C)c1ccc(N=Cc2nc(-c3ccccc3)oc2OC(=O)c2cccc(Br)c2)cc1`, the AC40 is 1.2 µM.

Turning to `Cc1cc(F)ccc1-c1cc(C(=O)NC2CCCCC2)[nH]n1`, the AC40 was 9.06 µM.

Take `COc1cc(OC)c2c(-c3cccc(/C=C/c4ccc(F)cc4)c3)cc(=O)oc2c1`: the AC40 is 3.49 µM.

`COc1ccc(/C=N/NC(=O)c2cccs2)c2ccccc12`: the AC40 was 9.35 µM.

With `Cc1csc(SCCN2C(=O)c3ccccc3C2=O)n1`, the AC40 was 3.17 µM.

Take `Cn1c(C(=O)N/N=C/c2ccccc2)cc2ccccc21`: the AC40 was 2.84 µM.

In the case of `Cc1ccc(NC(=O)C2CCCN(c3ncccn3)C2)cc1C` (centres undefined), the AC40 was 4.21 µM.

On to `C=CCn1c(O)c(C=Nc2ccccc2)sc1=S`, for which the AC40 is 5.13 µM.

Turning to `CCn1c(C)nc2cc(C(=O)NN=Cc3ccccc3OC(F)F)ccc21`, the AC40 is 1.96 µM.

As for `COc1ccc(OCc2cc(C(=O)NC(C)Cc3cnccn3)no2)c(Cl)c1` (centres undefined), the AC40 was 5.42 µM.

Take `S=C1NC(c2ccccc2)=NCN1c1ccccc1`: the AC40 is 17.5 µM.

Consider `Clc1ccc(-c2nnc(-c3cccc4ccccc34)o2)cc1`, for which the AC40 was 1.79 µM.

With `C[C@H]1CN([C@@H](C)CO)C(=O)CCCn2nncc2CO[C@@H]1CN(C)C(=O)Nc1ccc2c(c1)OCCO2`, the AC40 is 29.2 µM.

With `O=S(=O)(Nc1cccc(-c2ccc(N3CCCCCC3)nn2)c1)c1ccc(C(F)(F)F)cc1`, the AC40 is 13.1 µM.

Regarding `CC/C(=N\NC(=O)c1cc(C2CC2)[nH]n1)c1ccccc1`, the AC40 was 4.25 µM.

Regarding `S=c1[nH]nc(SCc2ccccc2)c2[nH]cnc12`, the AC40 was 5.52 µM.

With `Cc1ccc(-c2ccc(CCC(=O)O)n2-c2cccc(O)c2)cc1`, the AC40 is 10.1 µM.

As for `COc1cccc(-c2noc(C3CCCN(C(=O)CC(C)(C)C)C3)n2)c1` (centres undefined), the AC40 is 6.48 µM.

On to `CO[C@H]1CN(C)C(=O)c2cc(NC(=O)Nc3ccc4c(c3)OCO4)ccc2OC[C@@H](C)NC[C@H]1C`, for which the AC40 was 8.26 µM.

For `CC1CCc2c(sc(NC(=O)c3cccn3C)c2C(N)=O)C1` (centres undefined), the AC40 was 3.63 µM.

For the molecule `COc1ccc(NC(=O)O/N=C/c2ccccc2)cc1`, the AC40 is 5.24 µM.

For `O=C(c1cc(COc2cccc(C(F)(F)F)c2)on1)N1CCCC1`, the AC40 is 17.5 µM.

For `CN(CCc1ccccn1)C(=O)CCc1nnc(CCCc2ccccc2)o1`, the AC40 was 4.93 µM.

`O=C(Nc1ccc(F)c(Cl)c1)c1cc(C2CCCN(C(=O)C3CC3)C2)on1` (centres undefined): the AC40 was under 0.26 µM.

As for `COc1ccc(C2CC2/C(=N/OC(=O)c2cccs2)c2ccccc2)cc1` (centres undefined), the AC40 was 2.9 µM.

Consider `COc1cc(/C=C2/C(=N)N3N=C(CC(=O)N4CCOCC4)SC3=NC2=O)ccc1OCc1ccc(F)cc1`, for which the AC40 was 3.4 µM.

On to `O=C(N/N=C/c1cnc2ccccc2n1)c1cccc(F)c1`, for which the AC40 was 4.89 µM.

Consider `Cc1ccc(OCc2cc(C(=O)NCCc3cccnc3)no2)cc1C`, for which the AC40 is 11.9 µM.

Consider `COc1cccc(OCc2cc(C(=O)N3CCN(C(C)=O)CC3)no2)c1`, for which the AC40 was 3.15 µM.

With `C=CCNc1nc(NCc2ccc(NC(C)=O)cc2)c2sc(-c3ccccc3)cc2n1`, the AC40 is 0.635 µM.

`COc1ccc(Cl)cc1C(=O)NNC(=O)c1cccs1`: the AC40 was 4.75 µM.

For `Cc1ccnc(NC(=O)c2ccc3c(c2)C(=O)N(CC(C)C)C3=O)c1`, the AC40 is 2.87 µM.

On to `COc1ccc(OCc2cc(C(=O)NC(C)c3nc(C)cs3)no2)c(Cl)c1` (centres undefined), for which the AC40 was 10.4 µM.

On to `Nc1ccc(C#Cc2ccc3c(=O)c4ccccc4oc3c2)cc1`, for which the AC40 was 3.64 µM.

In the case of `CN1CCN(C(=O)C[C@@H]2CC[C@@H]3[C@H](COC[C@@H](O)CN3C(=O)Nc3ccc4c(c3)OCO4)O2)CC1`, the AC40 was 24.2 µM.

For the molecule `COc1ccc(-c2csc(C(O)c3ccccc3)n2)cn1` (centres undefined), the AC40 is 9.65 µM.

For `Cc1ccc(OCc2cc(C(=O)N3CCN(C4CCCCC4)CC3)no2)cc1C`, the AC40 was 10 µM.

Turning to `Nc1cc2c(cc1Br)-c1ccccc1C2=NO`, the AC40 was 9.76 µM.

Take `CC(C)Cn1cnc2c(SCc3ccccc3)nc(N)nc21`: the AC40 was 8.9 µM.

Turning to `O=C(c1c(F)cccc1F)N1CCCC(c2nc(-c3cccs3)no2)C1` (centres undefined), the AC40 is 11.8 µM.

As for `O=c1cc(-c2ccccc2Cl)oc2cc(O)cc(O)c12`, the AC40 is 12 µM.

Consider `CCc1ccccc1NC(=O)c1cc(-c2cccc(O)c2)on1`, for which the AC40 is 5.03 µM.

Take `N#CCc1nc(CSc2nc3ccccc3s2)cs1`: the AC40 was 9.73 µM.

For the molecule `COc1ccc2nc3sc(C(=O)NCCN4CCc5ccccc5C4)cc3cc2c1`, the AC40 was 5.77 µM.

Turning to `Cc1cc(NC(=O)CC2CCCC2)ccc1Br`, the AC40 is 11.8 µM.

For `COc1ccc(Nc2ccc3ccccc3c2)cc1`, the AC40 was 1.13 µM.

As for `COc1ccc(C2Nc3ccccc3C(=O)N2c2ccc(C)cc2)cc1Cn1nc(C)c([N+](=O)[O-])c1C` (centres undefined), the AC40 was 12.6 µM.

As to `COc1ccc(Cc2nc(-c3cccc(C)c3)no2)cc1`, the AC40 is 3.63 µM.

Values taken from PubChem BioAssay AID651717 (Broad Institute, 2012).
